The text below walks through data of ChEMBL document CHEMBL1130546, “Oligopresentation of protease inhibitors with -cyclodextrin as template” (Bioorg Med Chem Lett, 1997).

One may read the pKi as the Ki on a negative log10 scale, so that one unit is a factor of ten. A higher pKi goes with a small Ki.

Assay [1] has as its target Cathepsin B (Homo sapiens, UniProt P07858). Kind of assay: Equilibrium dissociation constant for the inhibition of human cathepsin B was determined.
Assay [2] has as its target T1, Calpain-1 catalytic subunit (Homo sapiens, UniProt P07384).
T1 sequence (P07384 whole entry): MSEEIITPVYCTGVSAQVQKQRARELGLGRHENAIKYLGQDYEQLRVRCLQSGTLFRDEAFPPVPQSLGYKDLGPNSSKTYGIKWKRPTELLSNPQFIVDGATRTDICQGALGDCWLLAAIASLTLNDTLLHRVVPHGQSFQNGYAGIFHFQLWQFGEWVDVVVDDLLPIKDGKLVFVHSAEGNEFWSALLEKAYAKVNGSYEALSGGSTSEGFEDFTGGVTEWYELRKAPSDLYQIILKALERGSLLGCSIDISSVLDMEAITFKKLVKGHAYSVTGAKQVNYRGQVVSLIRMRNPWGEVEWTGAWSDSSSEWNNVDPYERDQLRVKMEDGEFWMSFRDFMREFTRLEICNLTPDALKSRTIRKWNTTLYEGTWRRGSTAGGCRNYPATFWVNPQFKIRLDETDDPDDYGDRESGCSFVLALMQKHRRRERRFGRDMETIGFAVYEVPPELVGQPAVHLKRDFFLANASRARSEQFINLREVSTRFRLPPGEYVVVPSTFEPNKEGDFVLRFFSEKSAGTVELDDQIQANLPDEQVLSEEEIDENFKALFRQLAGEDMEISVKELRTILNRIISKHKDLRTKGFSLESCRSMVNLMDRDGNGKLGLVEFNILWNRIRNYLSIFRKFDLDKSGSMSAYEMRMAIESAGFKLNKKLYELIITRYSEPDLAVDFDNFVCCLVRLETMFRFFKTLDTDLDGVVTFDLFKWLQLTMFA
The assay can be described thus: Equilibrium dissociation constant for the inhibition of human Mu-calpain was determined.

pKi: −log10 of the molar value. Where a SMILES comes first, the peptide text is derived from it. [ ]: non-standard residue; d: D form. Nle = CCCC[C@H](N)C(=O)O

Regarding `CCCC[C@H](NC(=O)[C@H](CC(C)C)NC(=O)[C@H](CC(C)C)NC(C)=O)C(=O)O` (Ac-Leu-Leu-[Nle]-OH), the pKi in assay [1] is 9.00; in assay [2], 8.47.
